Test results taken from ChEMBL document CHEMBL3580568, “Design and synthesis of close analogs of LCRF-0004, a potent and selective RON receptor tyrosine kinase inhibitor” (Bioorg Med Chem Lett, 2015).

Legend:
[1] = molecular target: Hepatocyte growth factor receptor (Homo sapiens, UniProt P08581); assay: Inhibition of phosphorylation of c-Met in human MKN45 cells
[2] = molecular target: T1, Macrophage-stimulating protein receptor (Homo sapiens, UniProt Q04912); assay: Inhibition of RON phosphorylation in human PC3 cells; assay type: cell-based, PC-3
[3] = molecular target: T1, Macrophage-stimulating protein receptor; assay: Inhibition of RON phosphorylation in human HT29 cells; assay type: cell-based, HT-29
MDA-MB-231 = assay: Antiproliferative activity against human MDA-MB-231 cells by MTT assay; assay type: functional, cell-based
A549 = assay: Antiproliferative activity against human A549 cells by MTT assay; assay type: functional, cell-based
[4] = molecular target: T1, Macrophage-stimulating protein receptor; assay: Inhibition of RON (unknown origin) kinase domain by enzymatic assay

T1 sequence (Q04912 25-304 limits assumed): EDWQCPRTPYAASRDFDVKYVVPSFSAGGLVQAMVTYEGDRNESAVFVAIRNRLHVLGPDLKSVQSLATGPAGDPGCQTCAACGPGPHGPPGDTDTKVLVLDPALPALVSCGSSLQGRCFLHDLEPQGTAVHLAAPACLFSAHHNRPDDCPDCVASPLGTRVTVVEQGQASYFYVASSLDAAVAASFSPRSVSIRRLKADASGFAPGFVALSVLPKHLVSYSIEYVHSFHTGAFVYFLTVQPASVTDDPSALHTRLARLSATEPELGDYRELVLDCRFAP
T1 sequence (Q04912 310-1400 limits assumed): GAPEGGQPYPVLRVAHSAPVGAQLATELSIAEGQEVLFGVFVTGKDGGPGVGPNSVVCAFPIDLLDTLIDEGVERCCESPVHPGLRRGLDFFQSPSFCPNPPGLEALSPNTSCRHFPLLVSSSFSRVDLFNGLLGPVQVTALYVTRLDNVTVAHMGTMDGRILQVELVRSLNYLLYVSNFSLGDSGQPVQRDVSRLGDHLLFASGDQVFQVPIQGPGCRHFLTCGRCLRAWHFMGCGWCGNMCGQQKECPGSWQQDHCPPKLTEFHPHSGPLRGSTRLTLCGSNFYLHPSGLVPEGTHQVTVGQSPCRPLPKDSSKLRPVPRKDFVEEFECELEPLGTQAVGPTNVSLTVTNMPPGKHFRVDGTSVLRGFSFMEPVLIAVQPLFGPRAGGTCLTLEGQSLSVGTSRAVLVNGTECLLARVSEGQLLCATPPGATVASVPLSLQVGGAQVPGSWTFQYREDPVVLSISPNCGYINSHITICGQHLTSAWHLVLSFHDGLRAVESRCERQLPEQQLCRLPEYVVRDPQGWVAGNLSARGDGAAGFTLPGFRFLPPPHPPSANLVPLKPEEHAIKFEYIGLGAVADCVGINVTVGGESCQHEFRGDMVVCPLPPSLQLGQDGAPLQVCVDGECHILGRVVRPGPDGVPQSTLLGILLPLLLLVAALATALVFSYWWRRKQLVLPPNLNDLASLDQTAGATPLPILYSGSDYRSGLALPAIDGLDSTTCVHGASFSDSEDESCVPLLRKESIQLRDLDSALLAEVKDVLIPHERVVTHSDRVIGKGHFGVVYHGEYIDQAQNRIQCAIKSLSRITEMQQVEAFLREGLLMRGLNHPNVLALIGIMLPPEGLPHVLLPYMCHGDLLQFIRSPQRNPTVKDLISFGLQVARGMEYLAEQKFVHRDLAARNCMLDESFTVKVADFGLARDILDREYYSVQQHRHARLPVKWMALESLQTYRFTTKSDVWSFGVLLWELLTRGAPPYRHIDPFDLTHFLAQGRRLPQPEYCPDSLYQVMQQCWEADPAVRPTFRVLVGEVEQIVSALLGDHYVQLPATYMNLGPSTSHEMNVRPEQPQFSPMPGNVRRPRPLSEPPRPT
Hepatocyte growth factor receptor, sequence (P08581 whole entry): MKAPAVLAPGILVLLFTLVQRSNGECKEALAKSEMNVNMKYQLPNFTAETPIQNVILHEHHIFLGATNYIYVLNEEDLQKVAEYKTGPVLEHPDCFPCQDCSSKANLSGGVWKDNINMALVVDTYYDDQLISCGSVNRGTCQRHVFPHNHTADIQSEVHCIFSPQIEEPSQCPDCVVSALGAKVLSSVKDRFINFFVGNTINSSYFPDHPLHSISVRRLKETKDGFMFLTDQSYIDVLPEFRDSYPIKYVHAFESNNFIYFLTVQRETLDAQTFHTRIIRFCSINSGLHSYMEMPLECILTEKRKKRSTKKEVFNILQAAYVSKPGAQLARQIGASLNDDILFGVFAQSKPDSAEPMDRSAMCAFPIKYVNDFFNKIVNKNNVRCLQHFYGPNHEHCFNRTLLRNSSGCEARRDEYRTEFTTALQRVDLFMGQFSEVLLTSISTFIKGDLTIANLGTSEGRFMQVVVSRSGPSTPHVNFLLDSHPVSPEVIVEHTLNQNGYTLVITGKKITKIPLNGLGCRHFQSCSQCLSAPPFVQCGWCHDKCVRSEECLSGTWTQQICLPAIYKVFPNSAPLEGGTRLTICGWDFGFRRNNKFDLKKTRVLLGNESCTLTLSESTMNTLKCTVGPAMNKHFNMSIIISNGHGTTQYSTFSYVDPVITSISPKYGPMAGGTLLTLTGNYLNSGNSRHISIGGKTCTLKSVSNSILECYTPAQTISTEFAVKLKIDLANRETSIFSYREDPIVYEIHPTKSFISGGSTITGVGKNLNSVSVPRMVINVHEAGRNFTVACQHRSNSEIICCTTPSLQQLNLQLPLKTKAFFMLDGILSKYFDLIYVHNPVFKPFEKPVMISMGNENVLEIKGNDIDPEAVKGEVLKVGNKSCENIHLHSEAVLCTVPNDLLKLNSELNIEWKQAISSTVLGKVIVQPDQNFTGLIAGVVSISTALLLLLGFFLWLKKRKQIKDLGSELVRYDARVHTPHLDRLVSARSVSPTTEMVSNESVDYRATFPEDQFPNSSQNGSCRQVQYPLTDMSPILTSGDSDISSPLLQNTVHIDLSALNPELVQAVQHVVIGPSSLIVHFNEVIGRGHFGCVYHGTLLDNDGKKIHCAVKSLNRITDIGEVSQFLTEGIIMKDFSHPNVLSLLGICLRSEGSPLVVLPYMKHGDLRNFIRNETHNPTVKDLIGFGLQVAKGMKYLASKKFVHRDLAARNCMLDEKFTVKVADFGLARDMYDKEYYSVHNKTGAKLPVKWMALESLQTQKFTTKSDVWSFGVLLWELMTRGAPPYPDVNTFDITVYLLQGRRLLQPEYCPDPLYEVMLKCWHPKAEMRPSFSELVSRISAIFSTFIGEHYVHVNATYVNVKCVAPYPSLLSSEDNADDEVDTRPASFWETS

Row | IC50 [1] | IC50 [2] | IC50 [3] | IC50 (MDA-MB-231) | IC50 (A549) | IC50 [4] | IC50 ([1]; mkn-45) | SMILES
1 | 6870 nM | 30 nM | 30 nM | 100 nM | 100 nM | 12 nM | – | Cn1cnc(-c2cc3nccc(Oc4ccc(NC(=O)c5cnn(-c6ccccc6)c5C(F)(F)F)cc4F)c3s2)c1
2 | – | – | – | – | – | – | Not Active | Cn1cnc(-c2cc3nccc(Oc4ccc(NC(=O)c5ccn(-c6ccccc6)c5C(F)(F)F)cc4F)c3s2)c1
